Measurements reported in ChEMBL document CHEMBL6153097, “Design, synthesis, and biological evaluation of Flavokavain B derivatives as potent TRF2 inhibitors for the treatment of Osteosarcoma” (Eur J Med Chem, 2025).
Active and inactive are the calls of the source. The rule behind the calls is not given here.

Legend:
MG-63 [1] = test: Induction of apoptosis in human MG-63 cells assessed as reduction in colocalization of TRF2 with telomere at 2 to 4 microM by Immunofluorescence based FISH assay; type: functional, cell-based; conditions: dose 2-4 µM
[2] = Cytotoxicity against […] MLO-Y4 cells assessed as cell viability incubated for 48 hrs by MTT assay; type: toxicity, cell-based; conditions: mouse
MG-63 [3] = test: Induction of apoptosis in human MG-63 cells assessed as viable cells at 2 uM measured after 48 hrs annexin-V and propidium iodide staining based flow cytometry analysis (reference value: 90.7%); type: functional; conditions: read-out: Activity
[4] = Inhibition of TRF2 expression in human MG-63 cells at 2 uM measured after 48 hrs by Western blot analysis relative to control; type: functional
U2OS [5] = test: Induction of apoptosis in human U2OS cells assessed as reduction in TRF2 foci at 2 to 4 microM by Immunofluorescence based FISH assay; type: functional, cell-based; conditions: dose 2-4 µM
MG-63 [6] = test: Antitumor activity against human MG-63 cells xenografted in female BALB/c mouse model assessed as reduction in Ki67 level in tumor treated via oral gavage administered once a day for 3 weeks by IHC analysis; type: functional, cell-based; conditions: dose 10-60 mg/kg
MG-63 [7] = test: Induction of apoptosis in human MG-63 cells assessed as late apoptotic cells at 4 uM measured after 48 hrs annexin-V and propidium iodide staining based flow cytometry analysis (reference value: 7.71%); type: functional
U2OS [8] = test: Induction of apoptosis in human U2OS cells assessed as reduction in colocalization of TRF2 with telomere at 2 to 4 microM by Immunofluorescence based FISH assay; type: functional, cell-based; conditions: dose 2-4 µM
MG-63 [9] = test: Induction of apoptosis in human MG-63 cells assessed as early apoptotic cells at 2 uM measured after 48 hrs annexin-V and propidium iodide staining based flow cytometry analysis (reference value: 0.66%); type: functional
U2OS [10] = test: Induction of apoptosis in human U2OS cells assessed as necrotic cells at 4 uM measured after 48 hrs annexin-V and propidium iodide staining based flow cytometry analysis (reference value: 2.46%); type: functional
[11] = Acute toxicity in mouse assessed as creatinine (Cr) level in serum at 30 to 90 mg/kg, po single dose measured for 7 days; type: organism-based; conditions: in vivo, 168 h, dose 30-90 mg/kg, time 7 day
U2OS [12] = test: Induction of apoptosis in human U2OS cells assessed as necrotic apoptotic cells at 2 uM measured after 48 hrs annexin-V and propidium iodide staining based flow cytometry analysis (reference value: 2.46%); type: functional
[13] = Toxicity in female BALB/c mouse model xenografted with human MG-63 cells assessed as effect on body weight at 10 to 60 mg/kg, via oral gavage administered once a day for 3 weeks; type: organism-based; conditions: in vivo, 504 h, dose 10-60 mg/kg
MG-63 [14] = test: Induction of DNA damage in human MG-63 cells assessed as increase in telomere dysfunction-foci at 4 uM by Immunofluorescence based FISH assay; type: functional, cell-based
U2OS [15] = test: Induction of DNA damage in human U2OS cells assessed as increase in telomere dysfunction-foci at 4 uM by Immunofluorescence based FISH assay; type: functional, cell-based
U2OS [16] = test: Induction of apoptosis in human U2OS cells assessed as viable cells at 2 uM measured after 48 hrs annexin-V and propidium iodide staining based flow cytometry analysis (reference value: 89.2%); type: functional; conditions: read-out: Activity
MG-63 [17] = test: Antiproliferative activity against human MG-63 cells assessed as reduction in cell viability incubated for 48 hrs by MTT assay; type: functional, cell-based; conditions: MG-63, 48 h
U2OS [18] = test: Induction of apoptosis in human U2OS cells assessed as viable cells at 4 uM measured after 48 hrs annexin-V and propidium iodide staining based flow cytometry analysis (reference value: 89.2%); type: functional; conditions: read-out: Activity
[19] = Acute toxicity in mouse assessed as effect on body weight at 30 to 90 mg/kg, po single dose measured for 7 days; type: organism-based; conditions: in vivo, 168 h, dose 30-90 mg/kg, time 7 day
MG-63 [20] = test: Induction of apoptosis in human MG-63 cells assessed as reduction in TRF2 foci at 2 to 4 microM by Immunofluorescence based FISH assay; type: functional, cell-based; conditions: dose 2-4 µM
MG-63 [21] = test: Induction of DNA damage response in human MG-63 cells assessed as telomere dysfunction by measuring telomere length shortening at 2 to 4 uM by Immunofluorescence based FISH assay; type: functional, cell-based; conditions: dose 2-4 µM
MG-63 [22] = test: Inhibition of TRF2 expression in human MG-63 cells by co-immunoprecipitation based Western blot analysis; type: functional, cell-based
U2OS [23] = test: Induction of DNA damage response in human U2OS cells assessed as telomere dysfunction by measuring telomere length shortening at 2 to 4 uM by Immunofluorescence based FISH assay; type: functional, cell-based; conditions: dose 2-4 µM
U2OS [24] = test: Downregulation of TRF expression levels in human U2OS cells measured after 48 hrs by Western blot analysis; type: functional, cell-based; conditions: dose 2-4 µM
MG-63 [25] = test: Downregulation of TRF expression levels in human MG-63 cells measured after 48 hrs by Western blot analysis; type: functional, cell-based; conditions: dose 2-4 µM
U2OS [26] = test: Antiproliferative activity against human U2OS cells assessed as reduction in cell viability incubated for 48 hrs by MTT assay; type: functional, cell-based
MG-63 [27] = test: Antitumor activity against human MG-63 cells xenografted in female BALB/c mouse model assessed as tumour growth suppression at 10 to 60 mg/kg, via oral gavage administered once a day for 3 weeks; type: functional, organism-based; conditions: dose 10-60 mg/kg
[28] = Inhibition of TRF2 expression in human U2OS cells at 2 uM measured after 48 hrs by Western blot analysis relative to control; type: functional
MG-63 [29] = test: […] inhibition of TRF2 expression in human MG-63 cells at 4 uM measured upto 12 hrs measured after drug washout by Western blot analysis; type: functional, cell-based
MG-63 [30] = test: Antitumor activity against human MG-63 cells xenografted in female BALB/c mouse model assessed as upregulation of gamma-H2AX in tumor treated via oral gavage administered once a day for 3 weeks by IHC analysis; type: functional, cell-based; conditions: dose 10-60 mg/kg
[31] = Acute toxicity in mouse assessed as change in weight of spleen at 30 to 90 mg/kg, po single dose measured for 7 days; type: organism-based; conditions: in vivo, 168 h, dose 30-90 mg/kg, time 7 day
MG-63 [32] = test: Induction of apoptosis in human MG-63 cells assessed as necrotic cells at 2 uM measured after 48 hrs annexin-V and propidium iodide staining based flow cytometry analysis (reference value: 0.52%); type: functional
MG-63 [33] = test: Antitumor activity against human MG-63 cells xenografted in female BALB/c mouse model assessed as nucleocytoplasmic separation in tumor tissue treated via oral gavage administered once a day for 3 weeks by HE staining analysis; type: functional, cell-based; conditions: dose 10-60 mg/kg
MG-63 [34] = test: Induction of apoptosis in human MG-63 cells assessed as necrotic cells at 4 uM measured after 48 hrs annexin-V and propidium iodide staining based flow cytometry analysis (reference value: 0.52%); type: functional
MG-63 [35] = test: Antiproliferative activity against human MG-63 cells assessed as reduction in cell viability at 2 to 4 uM measured for 8 days by PDL assay; type: functional, cell-based; conditions: dose 2-4 µM, time 8.0 day
MG-63 [36] = test: Induction of apoptosis in human MG-63 cells assessed as late apoptotic cells at 2 uM measured after 48 hrs annexin-V and propidium iodide staining based flow cytometry analysis (reference value: 7.71%); type: functional
U2OS [37] = test: Induction of DNA damage response in human U2OS cells assessed as reduction in TRF2 expression by measuring accumulation of telomere-free ends at 2 to 4 uM by FITC/DAPI based Quantitative FISH (Q-FISH) assay; type: functional, cell-based; conditions: dose 2-4 µM
[38] = Acute toxicity in mouse assessed as change in weight of kidney at 30 to 90 mg/kg, po single dose measured for 7 days; type: organism-based; conditions: in vivo, 168 h, dose 30-90 mg/kg, time 7 day

With `COc1cc(OC)c(C(=O)/C=C/c2cccc(Br)c2)c(OC)c1` the Activity (MG-63 [1]) was “Active”, the IC50 at 48 h [2] was 12.3 µM and the viability at 2 µM (MG-63 [3]) was 47.9%. For the same compound, the inhibition at 2 µM [4] was 54%, the Activity (U2OS [5]) was “Active” and the Activity (MG-63 [6]) was “Dose-dependent-effect; Compound Showed Significantly Stronger Effect Than Ar And Fkb04”. The Activity (MG-63 [7]) was 61.9%, the Activity (U2OS [8]) was “Active” and the Activity (MG-63 [9]) was 11.2%. For the same compound, the Activity (U2OS [10]) was 0.523%, the Activity [11] was “Non-toxic” and the Activity (U2OS [12]) was 1.18%. For the same compound, the Activity [13] was “Non-toxic”, the Activity (MG-63 [14]) was “Active” and the Activity (U2OS [15]) was “Active”. For the same compound, the viability at 2 µM (U2OS [16]) was 67.7%, the IC50 (MG-63 [17]) was 1.52 µM and the viability at 4 µM (U2OS [18]) was 52.2%. The Activity [19] was “Non-toxic”, the Activity (MG-63 [20]) was “Active” and the Activity (MG-63 [21]) was “Dose-dependent-effect”. For the same compound, the inhibition (MG-63 [22]) was “Active”, the Activity (U2OS [23]) was “Dose-dependent-effect” and the Activity (U2OS [24]) was “Dose-dependent-effect”. The Activity (MG-63 [25]) was “Dose-dependent-effect”, the IC50 (U2OS [26]) was 5.28 µM and the Activity (MG-63 [27]) was “Active; Stronger Than Control Drugs”. The inhibition at 2 µM [28] was 55.1%, the Activity (MG-63 [29]) was “Active; Returned To Control Levels Within 4 Hrs” and the Activity (MG-63 [30]) was “Dose-dependent-effect; Compound Showed Significantly Stronger Effect Than Ar And Fkb04”. For the same compound, the Activity [31] was “Non-toxic”, the Activity (MG-63 [32]) was 2.69% and the Activity (MG-63 [33]) was “Dose-dependent-effect; Significant Than Control”. The Activity (MG-63 [34]) was 5.47%, the Activity (MG-63 [35]) was “Active” and the Activity (MG-63 [36]) was 38.2%. The Activity (U2OS [37]) was “Active” and the Activity [38] was “Non-toxic”.
